# According to paper PMC10112232, “Comparison of Toxicities among Different Bumped Kinase Inhibitor Analogs for Treatment of Cryptosporidiosis” (Antimicrobial Agents and Chemotherapy, 2023):
# Read-outs that look alike come from different tables or passages of the source.
# Tests used:
# [1] = target: hERG (Homo sapiens, UniProt Q12809); conditions: cited from earlier work
# [2] = rat, in vivo; cited from earlier work
# [3] = Cardiovascular testing in anesthetized dogs; type: in vivo, dog; conditions: dogs (data not shown)
# Text: (§1) Methods for synthesis of BKIs ([17], [23]), efficacy against Nluc expressing C. parvum in infected adult IFN-γ KO mice ([6], [9]), in vivo mouse GI tract tissue exposure by LC/MS-MS analysis ([18], [28]), PK analysis of mouse plasma and brain tissue BKI concentrations by LC/MS-MS analysis ([29]), in vivo rat and dog cardiotoxicity screen ([30]), efficacy against IOWA-II strain C. parvum in infected neonatal calves ([13]), efficacy against C. hominis in infected piglets ([12]), in vitro inhibition of C. parvum CDPK1 (CpCDPK1) and human tyrosine kinase SRC (HsSRC) activity ([31]), in vitro inhibition of hERG ([32]), Nluc expressing C. parvum in vitro growth inhibition in infected HCT-8 cells ([6]), in vitro cytotoxicity in CRL-8155 and HepG2 cells ([29]), and mouse locomotor activity box ([33], [34]) have all been previously described. Analytes were measured by LC/MS-MS on an Acquity ultra performance liquid chromatography (UPLC) system in tandem with a Xevo TQ-S mass spectrometer (Waters, Milford, MA, USA).
# [4] = target: human tyrosine kinase SRC (HsSRC) (Homo sapiens, UniProt P12931); assay: In vitro inhibition of HsSRC; type: biochemical; conditions: read-out: HsSR IC50
# Text: as §1
# [5] = target: T1, C. parvum calcium dependent protein kinase 1 (CpCDPK1) (Cryptosporidium parvum, UniProt A3FQ16); assay: In vitro inhibition of CpCDPK1; type: biochemical
# T1 sequence (A3FQ16 1-538): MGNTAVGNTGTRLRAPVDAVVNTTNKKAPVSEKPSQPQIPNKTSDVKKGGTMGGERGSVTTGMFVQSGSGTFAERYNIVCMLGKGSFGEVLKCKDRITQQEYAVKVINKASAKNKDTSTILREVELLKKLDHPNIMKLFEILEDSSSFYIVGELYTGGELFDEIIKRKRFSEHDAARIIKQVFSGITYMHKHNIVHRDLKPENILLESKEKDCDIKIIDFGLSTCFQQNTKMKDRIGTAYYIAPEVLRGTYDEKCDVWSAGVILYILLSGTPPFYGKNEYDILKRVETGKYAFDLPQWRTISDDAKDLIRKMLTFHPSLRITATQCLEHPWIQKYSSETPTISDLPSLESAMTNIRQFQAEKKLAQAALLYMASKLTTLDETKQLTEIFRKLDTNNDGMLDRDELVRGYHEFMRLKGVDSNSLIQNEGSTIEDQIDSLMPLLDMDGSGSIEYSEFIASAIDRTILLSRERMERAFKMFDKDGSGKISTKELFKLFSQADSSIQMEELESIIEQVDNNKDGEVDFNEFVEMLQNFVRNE
# Text: as §1
# [6] = In vitro cytotoxicity in HepG2 cells; type: cell-based; conditions: human
# Text: as §1
# [7] = test system: Nluc expressing C. parvum; assay: Nluc expressing C. parvum in vitro growth inhibition in infected HCT-8 cells; type: cell-based; conditions: Cryptosporidium parvum
# Text: as §1
# [8] = In vitro cytotoxicity in CRL-8155 cells; type: cell-based; conditions: human
# Text: as §1
# [9] = Aqueous solubility; type: physicochemical
# Text: TABLE 1 In vitro properties of bumped kinase inhibitors^a | column: Solubility at pH 2 (μM); Solubility at pH 6.5 (μM)
# [10] = test system: Cryptosporidium; parameters: method as in PMID 12423984, PMID 11398117, PMID 26568906; conditions: malnourished children (subtracting placebo efficacy); cited from earlier work
# Sequence of hERG (Q12809 whole entry): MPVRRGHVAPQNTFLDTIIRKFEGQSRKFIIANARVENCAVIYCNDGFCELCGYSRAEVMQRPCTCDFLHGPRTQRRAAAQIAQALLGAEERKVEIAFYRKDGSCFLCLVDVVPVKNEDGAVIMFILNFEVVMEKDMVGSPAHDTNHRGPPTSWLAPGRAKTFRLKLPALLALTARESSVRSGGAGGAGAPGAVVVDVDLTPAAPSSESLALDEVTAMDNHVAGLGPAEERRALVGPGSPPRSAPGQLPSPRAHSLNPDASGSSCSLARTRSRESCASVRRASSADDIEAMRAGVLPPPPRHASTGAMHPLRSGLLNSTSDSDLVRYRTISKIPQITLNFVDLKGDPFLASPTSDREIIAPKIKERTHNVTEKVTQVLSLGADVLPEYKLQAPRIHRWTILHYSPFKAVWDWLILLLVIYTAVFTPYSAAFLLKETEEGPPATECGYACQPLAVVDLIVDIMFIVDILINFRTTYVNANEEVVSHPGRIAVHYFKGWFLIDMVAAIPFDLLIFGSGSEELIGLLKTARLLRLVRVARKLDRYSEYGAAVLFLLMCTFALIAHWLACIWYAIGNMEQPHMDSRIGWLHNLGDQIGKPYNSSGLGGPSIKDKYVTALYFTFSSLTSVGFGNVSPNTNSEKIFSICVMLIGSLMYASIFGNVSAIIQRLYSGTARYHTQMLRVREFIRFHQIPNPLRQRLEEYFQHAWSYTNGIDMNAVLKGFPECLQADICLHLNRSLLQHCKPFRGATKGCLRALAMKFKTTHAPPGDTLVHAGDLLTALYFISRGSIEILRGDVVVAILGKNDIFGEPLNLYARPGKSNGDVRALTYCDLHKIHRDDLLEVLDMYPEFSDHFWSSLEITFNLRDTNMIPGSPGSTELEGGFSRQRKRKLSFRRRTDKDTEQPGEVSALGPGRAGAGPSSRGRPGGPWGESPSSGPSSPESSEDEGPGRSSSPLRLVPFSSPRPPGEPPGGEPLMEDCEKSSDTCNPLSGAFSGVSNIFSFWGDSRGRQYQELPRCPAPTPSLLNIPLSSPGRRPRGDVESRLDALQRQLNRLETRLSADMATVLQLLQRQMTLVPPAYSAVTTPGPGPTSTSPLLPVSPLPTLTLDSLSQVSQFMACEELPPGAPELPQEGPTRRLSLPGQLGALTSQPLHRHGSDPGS
# Sequence of human tyrosine kinase SRC (HsSRC) (P12931 whole entry): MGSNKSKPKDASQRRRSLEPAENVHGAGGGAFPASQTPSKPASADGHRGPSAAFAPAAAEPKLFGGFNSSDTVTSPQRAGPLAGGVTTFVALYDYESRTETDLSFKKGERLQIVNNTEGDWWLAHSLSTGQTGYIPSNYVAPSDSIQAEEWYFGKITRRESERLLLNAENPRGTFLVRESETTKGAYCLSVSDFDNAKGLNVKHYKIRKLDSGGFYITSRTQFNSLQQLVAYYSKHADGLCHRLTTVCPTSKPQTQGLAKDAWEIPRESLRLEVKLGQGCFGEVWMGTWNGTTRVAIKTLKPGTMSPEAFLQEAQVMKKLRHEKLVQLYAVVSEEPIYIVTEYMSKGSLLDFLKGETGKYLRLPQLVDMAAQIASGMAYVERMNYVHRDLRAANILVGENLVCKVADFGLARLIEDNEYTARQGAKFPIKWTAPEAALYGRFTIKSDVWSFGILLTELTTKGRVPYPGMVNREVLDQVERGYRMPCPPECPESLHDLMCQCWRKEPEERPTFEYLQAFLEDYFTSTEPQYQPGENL
structure (smiles),measurement,setting,value
CCOc1ccc2cc(-c3nn(CC4CCN(C)CC4)c4ncnc(N)c34)ccc2n1 [BKI-1369],cardiotoxicity in the in vitro hERG assay,[1],Cardiotoxicity was additionally seen
same,cardiotoxicity in vivo,[2],Cardiotoxicity was additionally seen
same,cardiotoxicity in vivo,[3],Cardiotoxicity was additionally seen
CC(C)(CCO)n1nc(-c2ccc3cc(O)ccc3c2)c(C(N)=O)c1N [1770-M5],IC50,[4],5.4 µM
same,IC50,[5],0.018 µM
same,CC50,[6],> 80 µM
same,EC50,[7],2.1 µM
same,CC50,[8],> 80 µM
same,solubility,"[9]; aqueous medium at pH 2, pH 2, simulated gastric fluid, read-out: Solubility at pH 2",89 µM
same,solubility,"[9]; aqueous medium at pH 6.5, pH 6.5, aqueous buffer, read-out: Solubility at pH 6.5",> 100 µM
CC(=O)Oc1ccccc1C(=O)Nc1ncc([N+](=O)[O-])s1 [Nitazoxanide],efficacy,[10],about 30%
CCOc1ccc2cc(-c3nn(CC4CCN(C)CC4)c4ncnc(N)c34)ccc2c1 [BKI-1294],inhibition of hERG in vitro,[1],submicromolar range
